In paper PMC8963254, “Effects of Lysine N-ζ-Methylation in Ultrashort Tetrabasic Lipopeptides (UTBLPs) on the Potentiation of Rifampicin, Novobiocin, and Niclosamide in Gram-Negative Bacteria” (Antibiotics, 2022):
≈ marks a conversion by molar mass, not a printed value. Where two headings read alike, the source gives them in different places. Residues, ends and D or L forms follow the SMILES beside them. *: point of attachment. Octanoyl = CCCCCCCC(=O)*

How the values were obtained:
E. cloacae 118564 [1] = test: microbe, parasite or virus in culture; format: cell-based, Enterobacter cloacae; conditions: 118564, 18 h
Summary of the method: (§1)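 MIC was determined by broth microdilution following CLSI guidelines. Serially varied compound concentrations were incubated with bacterial inoculum at 5 × 10^5 CFU/mL (final) for 18 h at 37 °C. Growth was scored as turbidity by absorbance at 590 nm.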

MRSE 61589 [2] = format: cell-based, Staphylococcus epidermidis
Procedure: (§2) The synergy of the UTBLPs with various antibiotics was assessed using checkerboard assay as previously described. Briefly, the combination of antibiotic and OMP at varying concentrations were incubated with bacterial inoculum (5 × 10^5 CFU/mL final concentration) at 37 °C for 18 h. Growth in the form of turbidity was confirmed using an EMax Plus microplate reader (Molecular Devices, Union City, CA, USA) at 590 nm. Fractional inhibitory concentration index (FICI) was used to evaluate the interaction between the antibiotic and the OMP. FICI is the sum of the FIC of the antibiotic and the FIC of the OMP. The FIC value is calculated by dividing the MIC of the agents in combination by the MIC of the agent alone. FICI ≤ 0.5 is synergistic, 0.5 < x ≤ 4 is additive, and >4 is antagonistic.

MSSE 81388 [3] = format: cell-based, Staphylococcus epidermidis
Procedure: as §2

P. aeruginosa PAO1 = format: cell-based, Pseudomonas aeruginosa; conditions: PAO1, 18 h
Procedure: (§3) The in vitro antibacterial activity of the UTBLPs was assessed against wild-type and clinically isolated bacterial strains. To obtain the MIC of the compounds, the microbroth dilution susceptibility assay was performed according to the Clinical and Laboratory Standards Institute (CLSI, Wayne, PA, USA) guidelines and as previously described. Briefly, the compounds at varying concentrations were incubated with bacterial inoculum (5 × 10^5 CFU/mL final concentration) at 37 °C for 18 h. Growth in the form of turbidity was confirmed using an EMax Plus microplate reader (Molecular Devices, San Jose, CA, USA) at 590 nm.

A. baumannii AB027 [4] = test: microbe, parasite or virus in culture; format: cell-based, Acinetobacter baumannii; conditions: AB027, 18 h
Summary of the method: as §1

A. baumannii AB92247 = test: microbe, parasite or virus in culture; format: cell-based, Acinetobacter baumannii; conditions: AB92247, 18 h
Summary of the method: as §1

E. faecium ATCC 27270 = format: cell-based, Enterococcus faecium; conditions: ATCC 27270, 18 h
Procedure: as §3

E. coli ATCC 25922 = format: cell-based, Escherichia coli; conditions: ATCC 25922, 18 h
Procedure: as §3

MRSA ATCC 33592 = format: cell-based, Staphylococcus aureus
Procedure: as §2

S. aureus ATCC 29213 = format: cell-based, Staphylococcus aureus
Procedure: as §2

E. cloacae 118564 [5] = format: cell-based, Enterobacter cloacae; conditions: for MICUTBLP: UTBLP alone
Procedure: as §2

K. pneumoniae 113250 [6] = format: cell-based, Klebsiella pneumoniae; conditions: for MICUTBLP: UTBLP alone
Procedure: as §2

K. pneumoniae 113250 [7] = test: microbe, parasite or virus in culture; format: cell-based, Klebsiella pneumoniae; conditions: 113250, 18 h
Summary of the method: as §1

E. faecalis ATCC 29212 = format: cell-based, Enterococcus faecalis
Procedure: as §2

MRSE 61589 [8] = format: cell-based, Staphylococcus epidermidis; conditions: 61589, 18 h
Procedure: as §3

MSSE 81388 [9] = format: cell-based, Staphylococcus epidermidis; conditions: 18 h
Procedure: as §3

A. baumannii ATCC 17978 [10] = format: cell-based, Acinetobacter baumannii; conditions: ATCC 17978, 18 h
Procedure: as §3

A. baumannii 92247 = format: cell-based, Acinetobacter baumannii; conditions: for MICUTBLP: UTBLP alone
Procedure: as §2

A. baumannii AB027 [11] = format: cell-based, Acinetobacter baumannii; conditions: for MICUTBLP: UTBLP alone
Procedure: as §2

A. baumannii ATCC 17978 [12] = format: cell-based, Acinetobacter baumannii; conditions: for MICUTBLP: UTBLP alone
Procedure: as §2

[13] = UTBLP alone, plate with chloramphenicol
[14] = UTBLP in combination with chloramphenicol
[15] = chloramphenicol in combination with the UTBLP
[16] = UTBLP in combination with novobiocin
[17] = UTBLP in combination with rifampicin
[18] = novobiocin in combination with the UTBLP
[19] = rifampicin in combination with the UTBLP

MIC (E. cloacae 118564 [1]): > 128 µg/mL | MICUTBLP (MRSE 61589 [2]; [13]): 8 µg/mL | MICUTBLP [MICcombo] (MRSE 61589 [2]; [14]): 4 µg/mL | MICchloramphenicol [MICcombo] (MRSE 61589 [2]; [15]): 4 µg/mL | MICUTBLP (MSSE 81388 [3]; [13]): 16 µg/mL | MICUTBLP [MICcombo] (MSSE 81388 [3]; [14]): 8 µg/mL | MICchloramphenicol [MICcombo] (MSSE 81388 [3]; [15]): 0.25 µg/mL | MIC (P. aeruginosa PAO1): >128 µg/mL | MIC (A. baumannii AB027 [4]): 128 µg/mL (≈ 141 µM) | MIC (A. baumannii AB92247): 32 µg/mL (≈ 35.2 µM) | MIC (E. faecium ATCC 27270): 32 µg/mL (≈ 35.2 µM) | MIC (E. coli ATCC 25922): 64 µg/mL (≈ 70.3 µM) | MICUTBLP (MRSA ATCC 33592; [13]): 64 µg/mL | MICUTBLP [MICcombo] (MRSA ATCC 33592; [14]): 0.25 µg/mL | MICchloramphenicol [MICcombo] (MRSA ATCC 33592; [15]): 64 µg/mL | MICUTBLP (S. aureus ATCC 29213; [13]): 64 µg/mL | MICUTBLP [MICcombo] (S. aureus ATCC 29213; [14]): 16 µg/mL | MICchloramphenicol [MICcombo] (S. aureus ATCC 29213; [15]): 2 µg/mL | MICUTBLP (E. cloacae 118564 [5]; plate with novobiocin): > 128 µg/mL | MICUTBLP (E. cloacae 118564 [5]; plate with rifampicin): > 128 µg/mL | MICUTBLP [MICcombo] (E. cloacae 118564 [5]; [16]): 16 µg/mL | MICUTBLP [MICcombo] (E. cloacae 118564 [5]; [17]): 8 µg/mL | MICantibiotic [MICcombo] (E. cloacae 118564 [5]; [18]): 0.5 µg/mL | MICantibiotic [MICcombo] (E. cloacae 118564 [5]; [19]): 0.5 µg/mL | MICUTBLP (K. pneumoniae 113250 [6]; plate with novobiocin): > 128 µg/mL | MICUTBLP (K. pneumoniae 113250 [6]; plate with rifampicin): > 128 µg/mL | MICUTBLP [MICcombo] (K. pneumoniae 113250 [6]; [16]): 16 µg/mL | MICUTBLP [MICcombo] (K. pneumoniae 113250 [6]; [17]): 8 µg/mL | MICantibiotic [MICcombo] (K. pneumoniae 113250 [6]; [18]): 1 µg/mL | MICantibiotic [MICcombo] (K. pneumoniae 113250 [6]; [19]): 0.5 µg/mL | MIC (K. pneumoniae 113250 [7]): > 128 µg/mL | MICUTBLP (E. faecalis ATCC 29212; [13]): 32 µg/mL | MICUTBLP [MICcombo] (E. faecalis ATCC 29212; [14]): 4 µg/mL | MICchloramphenicol [MICcombo] (E. faecalis ATCC 29212; [15]): 4 µg/mL | MIC (MRSE 61589 [8]): 8 µg/mL (≈ 8.79 µM) | MIC (MSSE 81388 [9]): 16 µg/mL (≈ 17.6 µM) | MIC (A. baumannii ATCC 17978 [10]): 64 µg/mL (≈ 70.3 µM) | MICUTBLP (A. baumannii 92247; plate with novobiocin): 32 µg/mL | MICUTBLP (A. baumannii 92247; plate with rifampicin): 32 µg/mL | MICUTBLP [MICcombo] (A. baumannii 92247; [16]): 1 µg/mL | MICUTBLP [MICcombo] (A. baumannii 92247; [17]): 2 µg/mL | MICantibiotic [MICcombo] (A. baumannii 92247; [18]): 0.125 µg/mL | MICantibiotic [MICcombo] (A. baumannii 92247; [19]): 0.063 µg/mL | MICUTBLP (A. baumannii AB027 [11]; plate with novobiocin): 128 µg/mL | MICUTBLP (A. baumannii AB027 [11]; plate with rifampicin): 128 µg/mL | MICUTBLP [MICcombo] (A. baumannii AB027 [11]; [16]): 1 µg/mL | MICUTBLP [MICcombo] (A. baumannii AB027 [11]; [17]): 2 µg/mL | MICantibiotic [MICcombo] (A. baumannii AB027 [11]; [18]): 0.25 µg/mL | MICantibiotic [MICcombo] (A. baumannii AB027 [11]; [19]): 0.016 µg/mL | MICUTBLP (A. baumannii ATCC 17978 [12]; plate with chloramphenicol): 64 µg/mL | MICUTBLP (A. baumannii ATCC 17978 [12]; plate with niclosamide): 64 µg/mL | MICUTBLP (A. baumannii ATCC 17978 [12]; plate with novobiocin): 64 µg/mL | MICUTBLP (A. baumannii ATCC 17978 [12]; plate with rifampicin): 64 µg/mL | MICUTBLP [MICcombo] (A. baumannii ATCC 17978 [12]; [14]): 4 µg/mL | MICUTBLP [MICcombo] (A. baumannii ATCC 17978 [12]; UTBLP in combination with niclosamide): 0.5 µg/mL | MICUTBLP [MICcombo] (A. baumannii ATCC 17978 [12]; [16]): 2 µg/mL | MICUTBLP [MICcombo] (A. baumannii ATCC 17978 [12]; [17]): 1 µg/mL | MICantibiotic [MICcombo] (A. baumannii ATCC 17978 [12]; [15]): 32 µg/mL | MICantibiotic [MICcombo] (A. baumannii ATCC 17978 [12]; niclosamide in combination with the UTBLP): 1 µg/mL | MICantibiotic [MICcombo] (A. baumannii ATCC 17978 [12]; [18]): 0.125 µg/mL | MICantibiotic [MICcombo] (A. baumannii ATCC 17978 [12]; [19]): 0.031 µg/mL
Structure (SMILES): CCCCCCCC(=O)NCCCC[C@H](NC(=O)CCCCCCC)C(=O)N[C@@H](CCCCN)C(=O)N[C@@H](CCCCN)C(=O)N[C@@H](CCCCN)C(=O)N[C@@H](CCCCN)C(N)=O [UTBLP 5] (Octanoyl-K(Octanoyl)KKKK-NH2)
Interpretation (MRSE 61589 [2]; UTBLP + chloramphenicol): Additive (0.5 < x ≤ 4 is additive) | Interpretation (MSSE 81388 [3]; UTBLP + chloramphenicol): Additive (0.5 < x ≤ 4 is additive) | Interpretation (MRSA ATCC 33592; UTBLP + chloramphenicol): Additive (0.5 < x ≤ 4 is additive) | Interpretation (E. cloacae 118564 [5]; UTBLP + novobiocin): Synergy (FICI ≤ 0.5 is synergistic) | Interpretation (E. cloacae 118564 [5]; UTBLP + rifampicin): Synergy (FICI ≤ 0.5 is synergistic) | Interpretation (K. pneumoniae 113250 [6]; UTBLP + novobiocin): Synergy (FICI ≤ 0.5 is synergistic) | Interpretation (K. pneumoniae 113250 [6]; UTBLP + rifampicin): Synergy (FICI ≤ 0.5 is synergistic) | Interpretation (E. faecalis ATCC 29212; UTBLP + chloramphenicol): Additive (0.5 < x ≤ 4 is additive) | Interpretation (A. baumannii 92247; UTBLP + novobiocin): Synergy (FICI ≤ 0.5 is synergistic) | Interpretation (A. baumannii 92247; UTBLP + rifampicin): Synergy (FICI ≤ 0.5 is synergistic) | Interpretation (A. baumannii AB027 [11]; UTBLP + novobiocin): Synergy (FICI ≤ 0.5 is synergistic) | Interpretation (A. baumannii AB027 [11]; UTBLP + rifampicin): Synergy (FICI ≤ 0.5 is synergistic) | Interpretation (A. baumannii ATCC 17978 [12]; UTBLP + chloramphenicol): Additive (0.5 < x ≤ 4 is additive) | Interpretation (A. baumannii ATCC 17978 [12]; UTBLP + niclosamide): Synergy (FICI ≤ 0.5 is synergistic) | Interpretation (A. baumannii ATCC 17978 [12]; UTBLP + novobiocin): Synergy (FICI ≤ 0.5 is synergistic) | Interpretation (A. baumannii ATCC 17978 [12]; UTBLP + rifampicin): Synergy (FICI ≤ 0.5 is synergistic)
